{
  "source": "ChEMBL document CHEMBL3621133",
  "about": "“Macrocyclic derivatives of 6-methyluracil as ligands of the peripheral anionic site of acetylcholinesterase” (Medchemcomm, 2014)",
  "key": {"[1]": {"assay": "Toxicity in ip dosed rat", "format": "organism-based", "conditions": "in vivo"}, "Rattus norvegicus [2]": {"system": "Rattus norvegicus", "assay": "[…] in muscle action potential decrement in rat experimental autoimmune model of myasthenia gravis at 0.004 mg/kg, ip (reference value: 67.3 +/- 2.7%)", "format": "functional"}, "Acetylcholinesterase [3]": {"molecular_target": "T1, Acetylcholinesterase (Homo sapiens, UniProt P22303)", "T1 sequence (P22303 whole entry)": "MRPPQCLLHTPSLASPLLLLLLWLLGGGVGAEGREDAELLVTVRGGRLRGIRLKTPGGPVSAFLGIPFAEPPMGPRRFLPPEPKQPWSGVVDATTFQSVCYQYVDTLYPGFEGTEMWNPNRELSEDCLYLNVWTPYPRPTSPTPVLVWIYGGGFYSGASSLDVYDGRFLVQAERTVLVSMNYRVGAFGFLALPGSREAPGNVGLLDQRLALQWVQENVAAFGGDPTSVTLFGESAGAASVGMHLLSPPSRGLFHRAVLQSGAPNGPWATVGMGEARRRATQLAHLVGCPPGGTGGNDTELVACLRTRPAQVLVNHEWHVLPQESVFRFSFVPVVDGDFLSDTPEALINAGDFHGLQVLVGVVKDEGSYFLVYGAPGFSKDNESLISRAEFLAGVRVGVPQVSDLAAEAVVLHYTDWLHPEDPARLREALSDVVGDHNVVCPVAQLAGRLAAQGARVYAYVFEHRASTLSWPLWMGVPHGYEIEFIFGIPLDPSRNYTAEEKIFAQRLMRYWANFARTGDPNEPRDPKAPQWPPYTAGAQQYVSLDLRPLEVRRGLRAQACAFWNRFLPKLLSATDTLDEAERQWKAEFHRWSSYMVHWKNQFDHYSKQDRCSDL", "assay": "Inhibition of AChE from human erythrocytes"}, "Acetylcholinesterase [4]": {"molecular_target": "T1, Acetylcholinesterase", "assay": "Reversible inhibition of AChE from human erythrocytes by Lineweaver-Burk plot"}, "Cholinesterase": {"molecular_target": "Cholinesterase (Homo sapiens, UniProt P06276)", "sequence (P06276 whole entry)": "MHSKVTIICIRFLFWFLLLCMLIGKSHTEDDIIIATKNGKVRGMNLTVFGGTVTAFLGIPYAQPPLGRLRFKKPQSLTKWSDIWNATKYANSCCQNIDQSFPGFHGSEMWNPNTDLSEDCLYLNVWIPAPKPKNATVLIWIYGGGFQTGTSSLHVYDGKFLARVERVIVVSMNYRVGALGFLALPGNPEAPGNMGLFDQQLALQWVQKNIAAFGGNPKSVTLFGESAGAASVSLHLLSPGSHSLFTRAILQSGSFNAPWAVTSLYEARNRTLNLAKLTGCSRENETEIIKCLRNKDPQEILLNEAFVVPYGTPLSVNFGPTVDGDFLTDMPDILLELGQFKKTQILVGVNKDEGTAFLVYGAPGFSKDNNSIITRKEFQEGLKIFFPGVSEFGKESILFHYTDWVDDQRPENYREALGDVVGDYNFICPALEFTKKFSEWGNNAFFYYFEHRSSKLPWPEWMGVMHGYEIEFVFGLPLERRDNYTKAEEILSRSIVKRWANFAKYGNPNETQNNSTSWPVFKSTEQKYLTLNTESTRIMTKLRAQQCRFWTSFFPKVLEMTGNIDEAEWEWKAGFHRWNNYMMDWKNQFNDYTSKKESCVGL", "assay": "Inhibition of BChE from human plasma"}, "Rattus norvegicus [5]": {"system": "Rattus norvegicus", "assay": "[…] in muscle action potential decrement in rat experimental autoimmune model of myasthenia gravis at 0.008 mg/kg, ip (reference value: 67.3 +/- 2.7%)", "format": "functional"}, "Rattus norvegicus [6]": {"system": "Rattus norvegicus", "assay": "[…] in muscle action potential decrement in rat experimental autoimmune model of myasthenia gravis at 0.3 mg/kg, ip (reference value: 67.3 +/- 2.7%)", "format": "functional"}, "Rattus norvegicus [7]": {"system": "Rattus norvegicus", "assay": "[…] in muscle action potential decrement in rat experimental autoimmune model of myasthenia gravis at 0.1 mg/kg, ip (reference value: 67.3 +/- 2.7%)", "format": "functional"}},
  "data": [
    {"compound": "CC[N+](CC)(CCCCCn1c(C)cc(=O)n(CCCCC[N+](CC)(CC)Cc2ccccc2[N+](=O)[O-])c1=O)Cc1ccccc1[N+](=O)[O-].[Br-].[Br-]", "values": [
      {"measurement": "LD50", "setting": "[1]", "result": 0.008, "unit": "mg/kg"},
      {"measurement": "Activity", "setting": "Rattus norvegicus [2]", "result": 83.25, "unit": "%"},
      {"measurement": "IC50", "setting": "Acetylcholinesterase [3]", "result": 0.14, "unit": "nM"},
      {"measurement": "Ki", "setting": "Acetylcholinesterase [4]", "result": 0.08, "unit": "nM"},
      {"measurement": "IC50", "setting": "Cholinesterase", "result": 10000, "unit": "nM"},
      {"measurement": "Activity", "setting": "Rattus norvegicus [5]", "result": 95.41, "unit": "%"}
    ]},
    {"compound": "CC[N+]1(Cc2ccccc2[N+](=O)[O-])CCCCCC[N+](CC)(Cc2ccccc2[N+](=O)[O-])CCCCCn2c(=O)cc(C)n(c2=O)CCCCC1", "note": "(stereo not given)", "values": [
      {"measurement": "IC50", "setting": "Acetylcholinesterase [3]", "result": 59, "unit": "nM"},
      {"measurement": "IC50", "setting": "Cholinesterase", "result": 9200, "unit": "nM"}
    ]},
    {"compound": "CC[N+]1(Cc2ccccc2[N+](=O)[O-])CCCCCn2c(C)cc(=O)n(c2=O)CCCCC[N+](CC)(Cc2ccccc2[N+](=O)[O-])Cc2ccc(cc2)C1.[Br-].[Br-]", "note": "(stereo not given)", "values": [
      {"measurement": "Activity", "setting": "Rattus norvegicus [6]", "result": 95.4, "unit": "%"},
      {"measurement": "LD50", "setting": "[1]", "result": 15.5, "unit": "mg/kg"},
      {"measurement": "IC50", "setting": "Acetylcholinesterase [3]", "result": 7, "unit": "nM"},
      {"measurement": "Ki", "setting": "Acetylcholinesterase [4]", "result": 50.1, "unit": "nM"},
      {"measurement": "IC50", "setting": "Cholinesterase", "result": 1200, "unit": "nM"},
      {"measurement": "Activity", "setting": "Rattus norvegicus [7]", "result": 75, "unit": "%"}
    ]},
    {"compound": "CC[N+]1(Cc2ccccc2[N+](=O)[O-])CCCCCn2c(C)cc(=O)n(c2=O)CCCCC[N+](CC)(Cc2ccccc2[N+](=O)[O-])CCCCCn2c(=O)cc(C)n(c2=O)CCCCC1", "note": "(stereo not given)", "values": [
      {"measurement": "IC50", "setting": "Acetylcholinesterase [3]", "result": 130, "unit": "nM"},
      {"measurement": "IC50", "setting": "Cholinesterase", "result": 10000, "unit": "nM"}
    ]},
    {"compound": "CC[N+]1(Cc2ccccc2[N+](=O)[O-])CCCCCn2c(C)c3c(=O)n(c2=O)CCCCC[N+](CC)(Cc2ccccc2[N+](=O)[O-])CCCCCn2c(C)c(c(=O)n(c2=O)CCCCC1)C3", "note": "(stereo not given)", "values": [
      {"measurement": "IC50", "setting": "Acetylcholinesterase [3]", "result": 4000, "unit": "nM"},
      {"measurement": "IC50", "setting": "Cholinesterase", "result": 20000, "unit": "nM"}
    ]},
    {"compound": "CN(C)C(=O)Oc1ccc[n+](C)c1.[Br-]", "note": "[PYRIDOSTIGMINE BROMIDE]", "values": [
      {"measurement": "LD50", "setting": "[1]", "result": 2.7, "unit": "mg/kg"},
      {"measurement": "Activity", "setting": "Rattus norvegicus [7]", "result": 91.3, "unit": "%"}
    ]}
  ]
}
